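Assay format: 96-well plates, 48-hour exposure. At the GI50, growth is halved.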 Activity calls are given as the source filed them. No stated cut-off is given here; in the data, active = GI50 up to about 1.1 µM and inactive = higher.
Key:
Test in all cases: inhibition of tumour cell growth, NCI panel, 48 h
[1] = test system: U-251
[2] = test system: UO-31
[3] = test system: SNB-19
[4] = test system: UACC-257
[5] = test system: DU-145
[6] = test system: LOX IMVI
[7] = test system: MDA-MB-231
[8] = test system: HL-60
[9] = test system: IGROV-1
[10] = test system: HCT-15
[11] = test system: SK-OV-3
[12] = test system: MOLT-4
[13] = test system: MDA-MB-435
[14] = test system: Hs-578T
[15] = test system: A498
[16] = test system: SF-295
[17] = test system: HCT-116
[18] = test system: NCI-H522
[19] = test system: HOP-62
[20] = test system: NCI-H23
[21] = test system: HOP-92
[22] = test system: SK-MEL-2
[23] = test system: SF-268
[24] = test system: NCI/ADR-RES
[25] = test system: HT-29
[26] = test system: SN12C
[27] = test system: MDA-N
[28] = test system: KM12
[29] = test system: TK-10
[30] = test system: HCC 2998
[31] = test system: K562
[32] = test system: UACC-62
[33] = test system: 786-0
[34] = test system: NCI-H226
[35] = test system: NCI-H460
[36] = test system: RXF 393
[37] = test system: COLO 205
[38] = test system: A549
[39] = test system: BT-549
[40] = test system: OVCAR-5
[41] = test system: ACHN
[42] = test system: SK-MEL-5
[43] = test system: Malme-3M
[44] = test system: T47D
[45] = test system: SF-539
[46] = test system: OVCAR-4
[47] = test system: OVCAR-8
[48] = test system: MCF7
[49] = test system: RPMI-8226
[50] = test system: PC-3
[51] = test system: SK-MEL-28
[52] = test system: CCRF-CEM
[53] = test system: EKVX
[54] = test system: OVCAR-3
[55] = test system: SNB-75
[56] = test system: CAKI-1
[57] = test system: SW-620
[58] = test system: M14
[59] = test system: SR

Structure (SMILES): CC1=NN(C(=O)CC(=O)N(C(=O)c2ccccc2)c2ccc(Cl)cc2)C(=O)C1/N=N/c1ccc([N+](=O)[O-])cc1 (configuration not stated)
- GI50 [1]: > 10 µM (inactive)
- GI50 [2]: > 10 µM (inactive)
- GI50 [3]: > 10 µM (inactive)
- GI50 [4]: > 10 µM (inactive)
- GI50 [5]: > 10 µM (inactive)
- GI50 [6]: > 10 µM (inactive)
- GI50 [7]: > 10 µM (inactive)
- GI50 [8]: > 10 µM (inactive)
- GI50 [9]: > 10 µM (inactive)
- GI50 [10]: > 10 µM
- GI50 [11]: > 10 µM (inactive)
- GI50 [12]: 6.49 µM (inactive)
- GI50 [13]: > 10 µM (inactive)
- GI50 [14]: > 10 µM (inactive)
- GI50 [15]: > 10 µM (inactive)
- GI50 [16]: > 10 µM (inactive)
- GI50 [17]: > 10 µM (inactive)
- GI50 [18]: > 10 µM (inactive)
- GI50 [19]: > 10 µM (inactive)
- GI50 [20]: > 10 µM (inactive)
- GI50 [21]: > 10 µM (inactive)
- GI50 [22]: > 10 µM (inactive)
- GI50 [23]: > 10 µM (inactive)
- GI50 [24]: > 10 µM (inactive)
- GI50 [25]: > 10 µM (inactive)
- GI50 [26]: > 10 µM (inactive)
- GI50 [27]: > 10 µM (inactive)
- GI50 [28]: > 10 µM (inactive)
- GI50 [29]: > 10 µM (inactive)
- GI50 [30]: > 10 µM (inactive)
- GI50 [31]: > 10 µM (inactive)
- GI50 [32]: > 10 µM (inactive)
- GI50 [33]: > 10 µM (inactive)
- GI50 [34]: > 10 µM (inactive)
- GI50 [35]: > 10 µM (inactive)
- GI50 [36]: > 10 µM (inactive)
- GI50 [37]: > 10 µM (inactive)
- GI50 [38]: > 10 µM (inactive)
- GI50 [39]: > 10 µM (inactive)
- GI50 [40]: > 10 µM (inactive)
- GI50 [41]: > 10 µM (inactive)
- GI50 [42]: > 10 µM (inactive)
- GI50 [43]: > 10 µM (inactive)
- GI50 [44]: > 10 µM (inactive)
- GI50 [45]: > 10 µM (inactive)
- GI50 [46]: > 10 µM (inactive)
- GI50 [47]: > 10 µM (inactive)
- GI50 [48]: > 10 µM (inactive)
- GI50 [49]: > 10 µM (inactive)
- GI50 [50]: > 10 µM (inactive)
- GI50 [51]: > 10 µM (inactive)
- GI50 [52]: > 10 µM (inactive)
- GI50 [53]: > 10 µM (inactive)
- GI50 [54]: > 10 µM (inactive)
- GI50 [55]: > 10 µM (inactive)
- GI50 [56]: > 10 µM (inactive)
- GI50 [57]: > 10 µM (inactive)

Structure (SMILES): C(=N/Nc1ccccn1)/c1cccnc1
- GI50 [1]: > 100 µM (inactive)
- GI50 [2]: > 100 µM (inactive)
- GI50 [3]: > 100 µM (inactive)
- GI50 [4]: 89.3 µM (inactive)
- GI50 [5]: > 100 µM (inactive)
- GI50 [6]: > 100 µM (inactive)
- GI50 [7]: > 100 µM (inactive)
- GI50 [8]: > 100 µM (inactive)
- GI50 [9]: > 100 µM (inactive)
- GI50 [10]: > 100 µM
- GI50 [11]: > 100 µM (inactive)
- GI50 [12]: 76.2 µM (inactive)
- GI50 [13]: > 100 µM (inactive)
- GI50 [14]: > 100 µM (inactive)
- GI50 [15]: > 100 µM (inactive)
- GI50 [16]: > 100 µM (inactive)
- GI50 [17]: > 100 µM (inactive)
- GI50 [18]: > 100 µM (inactive)
- GI50 [19]: > 100 µM (inactive)
- GI50 [20]: 75 µM (inactive)
- GI50 [21]: > 100 µM (inactive)
- GI50 [58]: 62.7 µM (inactive)
- GI50 [22]: > 100 µM (inactive)
- GI50 [23]: > 100 µM (inactive)
- GI50 [24]: > 100 µM (inactive)
- GI50 [25]: > 100 µM (inactive)
- GI50 [26]: > 100 µM (inactive)
- GI50 [27]: > 100 µM (inactive)
- GI50 [28]: 68.7 µM (inactive)
- GI50 [29]: > 100 µM (inactive)
- GI50 [30]: > 100 µM (inactive)
- GI50 [31]: 31 µM (inactive)
- GI50 [32]: 94.6 µM (inactive)
- GI50 [33]: > 100 µM (inactive)
- GI50 [34]: > 100 µM (inactive)
- GI50 [35]: > 100 µM (inactive)
- GI50 [36]: > 100 µM (inactive)
- GI50 [37]: > 100 µM (inactive)
- GI50 [38]: > 100 µM (inactive)
- GI50 [39]: > 100 µM (inactive)
- GI50 [40]: > 100 µM (inactive)
- GI50 [41]: > 100 µM (inactive)
- GI50 [42]: > 100 µM (inactive)
- GI50 [43]: 66.4 µM (inactive)
- GI50 [44]: > 100 µM (inactive)
- GI50 [45]: > 100 µM (inactive)
- GI50 [46]: 98.9 µM (inactive)
- GI50 [47]: > 100 µM (inactive)
- GI50 [48]: 43.9 µM (inactive)
- GI50 [49]: > 100 µM (inactive)
- GI50 [50]: > 100 µM (inactive)
- GI50 [51]: 87.7 µM (inactive)
- GI50 [52]: > 100 µM (inactive)
- GI50 [53]: 49.4 µM (inactive)
- GI50 [54]: > 100 µM (inactive)
- GI50 [55]: 58.6 µM (inactive)
- GI50 [56]: > 100 µM (inactive)
- GI50 [57]: > 100 µM (inactive)

Structure (SMILES): Cc1nn(-c2ccccc2)c2nc3ccc(Cl)cc3c(-c3ccccc3)c12
- GI50 [1]: > 100 µM (inactive)
- GI50 [2]: > 100 µM (inactive)
- GI50 [3]: > 100 µM (inactive)
- GI50 [5]: > 100 µM (inactive)
- GI50 [6]: > 100 µM (inactive)
- GI50 [7]: > 100 µM (inactive)
- GI50 [9]: > 100 µM (inactive)
- GI50 [10]: > 100 µM
- GI50 [11]: > 100 µM (inactive)
- GI50 [12]: > 100 µM (inactive)
- GI50 [13]: > 100 µM (inactive)
- GI50 [14]: > 100 µM (inactive)
- GI50 [16]: > 100 µM (inactive)
- GI50 [17]: > 100 µM (inactive)
- GI50 [18]: > 100 µM (inactive)
- GI50 [19]: > 100 µM (inactive)
- GI50 [20]: > 100 µM (inactive)
- GI50 [21]: > 100 µM (inactive)
- GI50 [58]: > 100 µM (inactive)
- GI50 [22]: > 100 µM (inactive)
- GI50 [23]: > 100 µM (inactive)
- GI50 [59]: > 100 µM (inactive)
- GI50 [24]: > 100 µM (inactive)
- GI50 [25]: > 100 µM (inactive)
- GI50 [26]: > 100 µM (inactive)
- GI50 [27]: > 100 µM (inactive)
- GI50 [28]: > 100 µM (inactive)
- GI50 [29]: > 100 µM (inactive)
- GI50 [30]: > 100 µM (inactive)
- GI50 [32]: > 100 µM (inactive)
- GI50 [33]: > 100 µM (inactive)
- GI50 [34]: > 100 µM (inactive)
- GI50 [35]: > 100 µM (inactive)
- GI50 [37]: > 100 µM (inactive)
- GI50 [38]: > 100 µM (inactive)
- GI50 [39]: > 100 µM (inactive)
- GI50 [40]: > 100 µM (inactive)
- GI50 [41]: > 100 µM (inactive)
- GI50 [42]: > 100 µM (inactive)
- GI50 [43]: > 100 µM (inactive)
- GI50 [44]: > 100 µM (inactive)
- GI50 [46]: > 100 µM (inactive)
- GI50 [47]: > 100 µM (inactive)
- GI50 [48]: > 100 µM (inactive)
- GI50 [49]: > 100 µM (inactive)
- GI50 [50]: > 100 µM (inactive)
- GI50 [51]: > 100 µM (inactive)
- GI50 [52]: > 100 µM (inactive)
- GI50 [53]: > 100 µM (inactive)
- GI50 [54]: > 100 µM (inactive)
- GI50 [55]: > 100 µM (inactive)
- GI50 [57]: > 100 µM (inactive)
